From PubChem BioAssay AID588714 (Southern Research Specialized Biocontainment Screening …, 2011)
Results filed as inconclusive are left out. Active and inactive are the calls of the source.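 Rule for the calls: active = viability below 80% at one or more tested concentrations, meaning the compound is toxic to the cells; inconclusive = replicate runs disagree on whether viability fell below 80%; inactive = viability of 80% or more at every dose.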

Test system: not listed separately
Assay: viability reduction of Vero E6 cells – cell-based, M18 aspartyl aminopeptidase campaign, cytotoxicity control for P. falciparum PFM18AAP inhibitor project, dose response (AID 588714)
Details: Vero E6 viability, CellTiter-Glo luminescence, 72 h; at 25 µM (top of the series)

Row | Structure (SMILES) | viability
1 | O=C(O)CCCNc1c2ccccc2nc2ccccc12 | 103% (inactive)
2 | O=C(O)CCCCNc1c2ccccc2nc2ccccc12 | 96.8% (inactive)

Same assay, conditions: Vero E6 viability, CellTiter-Glo luminescence, 72 h; at 50 µM (top of the series)

Row | Structure (SMILES) | viability
3 | COc1ccc(CC(=O)O)cc1OC | 108% (inactive)
4 | CCC(C)c1ccc(N)c(O)c1 (stereo not given) | 103% (inactive)
5 | Cc1c(-c2ccccc2)[nH]c(-c2ccc(O)c(O)c2)[n+]1O | 97.2% (inactive)
6 | O=C(c1ccco1)N1CCN(Cc2cc(=O)c(O)c[nH]2)CC1 | 100% (inactive)
7 | O=c1cc(CO)oc(CN2CCCCC2)c1O | 99.7% (inactive)
8 | COc1ccc(CCC(=O)O)cc1OC | 94.6% (inactive)
9 | COc1ccc(CCNC2CCN(C)CC2)cc1OC | 97.5% (inactive)
10 | Oc1ccc(CCNc2c3c(nc4ccccc24)CCCC3)cc1O | 92.2% (inactive)
11 | COc1ccc(CCNc2ccncc2)cc1OC | 87.5% (inactive)
12 | O=C1OCCN1CCc1nc(-c2ccc(O)c(O)c2)cs1 | 92.6% (inactive)
13 | CCC(C)C(=O)Nc1ccccc1N (stereo not given) | 105% (inactive)
14 | Nc1cc(C(=O)c2ccccc2)ccc1O | 104% (inactive)
15 | O=C(c1ccco1)N1CCN(Cc2cc(=O)c(O)co2)CC1 | 92.2% (inactive)
16 | COc1ccc(CCN2CCN(C)CC2)cc1OC | 98% (inactive)
17 | CN(CCc1ccc(O)c(O)c1)c1ccncc1 | 99.3% (inactive)
18 | Oc1ccc(CCN2CCc3ccccc3C2)cc1O | 85.7% (inactive)
19 | CCC(C)C(=O)Nc1ccccc1O (stereo not given) | 99.8% (inactive)
20 | COc1ccc(CCN(C)c2ccncc2)cc1OC | 83.9% (inactive)
21 | Cc1c(O)c(=O)ccn1CCNc1c2ccccc2nc2ccccc12 | 89.4% (inactive)
22 | COc1ccc(CCN2CCc3ccccc3C2)cc1OC | 86.9% (inactive)

Test system: Vero E6 viability, CellTiter-Glo luminescence, 72 h
Assay: as above
Details: not given

Row | Structure (SMILES) | CC50 [µM]
23 | CCOc1cccc(-c2nc(-c3ccc(O)c(O)c3)cs2)c1 | 21.2
24 | COc1ccc(CCN(C)c2c3ccccc3nc3ccccc23)cc1OC | 15.9
25 | CC(C)(C)C(=O)OCc1nc(-c2ccc(O)c(O)c2)cs1 | 31.6
26 | O=c1cc(CN2CCN(Cc3ccccc3)CC2)c2ccc(O)c(O)c2o1 | 15.9
27 | COc1ccc(CCCNc2c3ccccc3nc3ccccc23)cc1OC | 21.8
28 | Cc1ccc(-c2nc(-c3ccc(O)c(O)c3)cs2)cc1 | 24.5
29 | Oc1ccc(CCNc2ccc3ccccc3c2)cc1O | 28.3
30 | Oc1ccc(CCNc2c3ccccc3nc3ccccc23)cc1 | 7.34
31 | NCc1cc2c3c(c(=O)oc2c(O)c1O)CCC3 | 29.2
32 | Oc1ccc(-c2csc(Cc3cc4ccccc4[nH]3)n2)cc1O | 15.5
33 | COc1ccc(CCNc2c3ccccc3nc3ccccc23)cc1 | 14.9
34 | Oc1ccc(CCNc2cncc3ccccc23)cc1O | 37.7
35 | O=S1(=O)c2ccccc2-c2cc(-c3nc(-c4ccc(O)c(O)c4)[nH]c3-c3ccccc3)ccc21 | 19.4
36 | Oc1ccc(CCNC(c2ccccc2)c2ccccc2)cc1O | 36.3
37 | COc1ccc(CCNc2c3ccccc3nc3ccccc23)cc1OC | 12.6
38 | COc1ccc(CNc2c3ccccc3nc3ccccc23)cc1OC | 5.37
39 | O=C1c2ccc3c4c(ccc(c24)C(=O)N1O)CC3 | 9.17
40 | NCCNc1c2ccccc2nc2ccccc12 | 45.3
41 | O=c1ccc2cc(O)c(O)cc2o1 | 38.2
42 | Oc1ccc(CCNc2cccc3ccccc23)cc1O | 16.5
43 | Oc1ccc(CNc2c3ccccc3nc3ccccc23)cc1O | 7.78
44 | Cc1nc(NCCc2ccc(O)c(O)c2)c2c3c(sc2n1)CCC3 | 43.7
45 | COc1cccc(CCNc2c3ccccc3nc3ccccc23)c1 | 8.75
